According to patent publication US20250367151A1, “ANTI-VWF THERAPEUTIC FOR PREVENTING ARTERIAL THROMBI” (GEORGIA TECH RESEARCH CORPORATION, priority 2022, published 2025):
Entries after “also recorded” stand apart in the source; their conditions may differ. Where two headings read alike, the source gives them in different places.

Experiments:
tail bleeding in mice [1] = settings: mice treated with ASA, previously seen (Decouture et al. 2019); cited from earlier work
human whole blood [2] = assay: Occlusion time in a stenotic microfluidic model of arterial thrombosis; format: cell-based; settings: for Average occlusion time: 30 min incubation, shear ~7,500 s-1, untreated 124 s; for Occlusion time, weak NAC responders: 0 mM 112 s; for Occlusion time, strong NAC responders: 0 mM 136 s
Excerpt: Microfluidic tests were run using a microfluidic system previously described (Griffin M T, et al. Inhibition of high shear arterial thrombosis by charged nanoparticles. Biomicrofluidics 2018;12). The chip contains a single inlet split into four outlet channels 475 μm wide and 250 μm tall. Within each outlet channel is a stenotic region 800 μm long where the height decreases to 70 μm. Flow is controlled using a hydraulic pressure head created by a raised reservoir connected to the inlet which generates an initial shear rate of ˜7,500 s-1 in the stenotic region. Channels are coated overnight with 100 μg/mL collagen Type I (Chrono-Log Corp) in 0.9% saline. Blood is filtered with a 37 μm nylon mesh immediately prior to testing to prevent debris from entering the chip.
(§1) For each chip, the mass flow rate of each outlet channel and brightfield images of two stenotic regions were acquired. Mass flow rates for each channel were measured using four mass balances (Ohaus Scout) connected to the device outlets. Occlusion time was defined as the difference between the time blood enters the stenosis region of the microfluidic device and the time when the mass balances register their peak mass. A brightfield, upright microscope (Leica DM6000B) was used in conjunction with a CCD camera (Pixelfly, PCO) to image the stenotic regions of the middle two channels as the occlusive thrombus formed. Images were taken once per second with a 40× magnification. These images were later thresholded into black and white images to identify platelet rich thrombi from the background blood (ImageJ). Average platelet intensity is defined as the average B/W value of the stenosis region. A value of 0 represents a clean channel with no platelets and increasing values indicate platelet accumulation.
(§2) Occlusion times for each concentration were tested using an unpaired Student's t-test. For survival curves, each possible combinations of pairs of concentrations were tested using a log-rank test. Visual measurement of platelet intensities for each concentration were compared using a Mann-Whitney U test. Statistical significance was determined by p<0.05.
Blood was collected from 10 healthy adult volunteers. Subjects were recruited in accordance with Georgia Institute of Technology's Institutional Review Board Guidelines (IRB #17315). Subjects with known bleeding disorders, a history of anti-platelet medications within 10 days of donation, anemia or transmittable blood disease were excluded from the study. Standard phlebotomy techniques were used to obtain blood. Briefly, 60 mL of blood was drawn slowly through a 21 G needle into a 60 ml syringe containing 0.21 mL of a 1000 USP/mL solution of heparin sodium (Fisher Scientific) in PBS to achieve a heparin concentration of […] in the collected blood. Complete Blood Counts (CBCs) were also performed on all donor samples. All tests were run within 4 hours of the blood draw.
(§3) N-acetyl cysteine was added to blood to create final concentrations of 3 mM, 5 mM and 10 mM. For each human subject, a fresh solution of concentrated NAC (Sigma Aldrich) was created in PBS and neutralized to a pH of 7 with NaOH. The concentrated NAC solution was then diluted so that the same volume of NAC solutions was added to each sample. Negative control (OmM) samples were similarly diluted with 0.5 mL of PBS in 15 mL blood. In three individuals, additional experiments were performed at concentrations of 7.5 mM, 20 mM and 40 mM. For all experiments, NAC was allowed to incubate in the blood at room temperature on a shaker for 30 minutes prior to testing.
To test the effect of N-acetylcysteine on reducing arterial thrombosis in human blood, whole blood was perfused collected from 10 healthy human subjects through a stenotic microfluidic channel coated with type I collagen. A constant pressure head of 16 mmHg was formed using an elevated upstream reservoir to create shear rates of ˜7,500 s-1 in the stenotic region and ˜800 s-1 in the rest of the channel. […]

[3] = tested on: platelet aggregation in human whole blood; assay: Brightfield platelet intensity (lag time, rapid platelet accumulation rate) in the microfluidic model; format: cell-based
Procedure: as §1, §2, §3
Brightfield measurements of platelet aggregation were used to establish whether the increase in occlusion time observed in 3 mM and 5 mM cases is primarily due to effects on initial platelet attachment (lag time) or the platelet accumulation rate (RPA). Lag time is defined as the time required for the average platelet intensity measurements to increase to 1% of their maximal value. Average lag times for 0 mM, 3 mM, 5 mM NAC experiments are 49 s, 65 s and 107 s, respectively. The small increases in lag time for 3 mM and 5 mM treatments cannot account for the 125-325 s increases in occlusion time seen in the 3 mM and 5 mM conditions. This is instead explained by a decrease in the rapid platelet accumulation rate, defined as the slope of the platelet intensity graph (FIG. 2B). […] The slope of the platelet intensity curve decreases as NAC concentration increases, with 10 mM NAC having a negligible slope. When the RPA rate for each individual is normalized to the individual's control RPA rate, the platelet aggregation rates for 3 mM, 5 mM and 10 mM are 0.66, 0.38 and −0.12, respectively (FIG. 2D, p<0.01 compared to control for all conditions). The small negative aggregation rate for 10 mM is an artifact caused by mixing of blood and PBS at the interface between the priming solution and the sample.

[4] = tested on: occlusive thrombi in common carotid artery of C57 mice; assay: Murine modified-Folts model of arterial thrombosis (carotid stenosis and crush injury); format: in vivo, mouse
Procedure: Formation of occlusive thrombi was measured using a murine Modified-Folts model (Kim D A, et al. Platelet α-granules are required for occlusive high-shear-rate thrombosis. Blood Adv. 2020;4:3258-3267). C57 mice were used under conditions approved by the university animal use and care committees. Following isolation of the common carotid artery, blood flow through the vessel was measured with a flow probe (Transonic Systems). A 6.0 silk suture was then tied around the vessel and tightened until the measured flow rate was approximately 50% of the initial value. This creates a stenosis region with high shear-rate at the apex. The artery is then crushed with forceps to damage the endothelial cells and expose collagen in the extracellular matrix.
In single injection experiments, 13 mice were treated with either 200 mg/kg NAC, 400 mg/kg NAC, or PBS. 100 μL of freshly prepared, neutralized NAC solution or vehicle was I.V. injected approximately 45 minutes prior to the crush injury.
For repeat injection experiments, mice were given either PBS, 200 mg/kg, or 400 mg/kg NAC through a 100 μL I.V. injection 6 hr prior to surgery. Mice were then given a second injection of PBS, 200 mg/kg, or 400 mg/kg NAC approximately 45 minutes prior to the crush injury. Additionally, 4 mice were given a dose of 400 mg/kg NAC through an 100 μL injection 6 hr prior to the surgery, followed by a second injection of PBS immediately prior to the crush injury.
Blood flow measurements were taken with a Transonic flow probe and acquired with Powerlab software (ADInstruments) (Id.). Time to initial occlusion is defined as the time between the crush injury and the first point where flow reaches approximately 0. After occlusion, if flow remains around 0 then the occlusion is characterized as stable. If instead the thrombus detaches and flow increases, the clot is labelled an unstable occlusion.
Statistical significance in time to initial occlusion was determined using unpaired student t-test (p <0.05). Differences in thrombus stability are determined using a Pearson's Chi-squared test (p <0.05).

tail bleeding in mice [5] = assay: Tail bleeding model; format: in vivo, mouse; settings: 400 mg/kg NAC; PBS 2.35 minutes, p=0.14
Procedure: Bleeding times were assessed using the tail bleeding model described previously (Liu Y, Standardizing a simpler, more sensitive and accurate tail bleeding assay in mice. World J Exp Med. 2012;2:30). Briefly, mice were anesthetized and the distal 3 mm segment of the tail was transected and placed in a vial of warm saline. The injuries were monitored visually to determine the time it took for bleeding to cease.

[6] = Elimination of NAC from mouse plasma (literature); format: in vivo; settings: calculated from half-life of 34 minutes
[7] = tested on: occlusive thrombi in common carotid artery of C57 mice; assay: Murine modified-Folts model of arterial thrombosis (carotid stenosis and crush injury); format: in vivo, mouse; settings: 200 mg/kg NAC 6 hrs prior and immediately prior to crush injury
[8] = Zhou et al. 2015; cited from earlier work
[9] = Olsson et al. 1988; cited from earlier work
human whole blood [10] = assay: VWF recovery experiment in 10 mM NAC treated blood, microfluidic system; format: cell-based
Procedure: VWF recovery experiments were performed using 3 individual's 10 mM NAC samples prepped as detailed above. 19 IU/mL of VWF (Humate) was added to these samples and they were immediately perfused through the microfluidic system. Occlusion times and platelet intensities were measured as above.
To test if the NAC prevented arterial thrombosis by modifying VWF as hypothesized, new VWF was added to blood samples treated with 10 mM NAC. […] Although OTs of the recovery samples were higher than the control, the average RPA rates for the control and recovery conditions were similar. By shifting the control curve right, simulating a 76 s increase in lag time, the two curves show a high degree of concordance (FIG. 9).

[11] = two doses of 400 mg/kg NAC 6 hrs apart

For `CC(=O)Oc1ccccc1C(=O)O` [ASA], the Average bleeding time (tail bleeding in mice [1]) is given as 5.72 min.
For `CC(=O)N[C@@H](CS)C(=O)O` [NAC, N-acetylcysteine], the Average occlusion time (human whole blood [2]; 3 mM NAC) was 255 s, the “Occlusion time, weak NAC responders” value (human whole blood [2]; 3 mM NAC) was 182 s and the “Occlusion time, strong NAC responders” value (human whole blood [2]; 3 mM NAC) was 328 s. For the same molecule, the “Increase in occlusion time” value (human whole blood [2]; 3 mM and 5 mM conditions vs control) was 125 to 325 s, the Average occlusion time (human whole blood [2]; 5 mM NAC) was 458 s and the “Occlusion time, weak NAC responders” value (human whole blood [2]; 5 mM NAC) was 220 s. The “Occlusion time, strong NAC responders” value (human whole blood [2]; 5 mM NAC) was 695 s, the “Samples not occluding within the time limit of the experiment” value (human whole blood [2]; 7.5 mM NAC, 3 individuals, 1000 s window) was about 64% and the Occlusion outcome (human whole blood [2]; 7.5 mM NAC, 1000 s window) was “results were mixed”. For the same molecule, the Occlusion outcome (human whole blood [2]; 20 mM NAC) was “did not occlude”, the Occlusion outcome (human whole blood [2]; 40 mM NAC) was “did not occlude” and the “Inflection point of 4-parameter logistic fit of occlusion time vs NAC dose” value (human whole blood [2]; r^2 = 0.782) was 5.6545 mM. For the same molecule, the “Logistic growth rate of 4-parameter logistic fit of occlusion time” value (human whole blood [2]; r^2 = 0.782) was 0.7145, the “Lower asymptote of 4-parameter logistic fit of occlusion time” value (human whole blood [2]; r^2 = 0.782) was 118.5 s and the “Upper asymptote of 4-parameter logistic fit of occlusion time” value (human whole blood [2]; r^2 = 0.782) was 1028.4 s. For the same molecule, the “Platelet aggregation (RPA) rate normalized to the individual's control RPA rate” value ([3]; 3 mM NAC) was 0.66, the “Reduction of the maximum growth rate of thrombi” value ([3]; 3 mM NAC) was 30% and the “Average lag time (time to 1% of maximal platelet intensity)” value ([3]; 3 mM NAC, 0 mM 49 s) was 65 s. The “Platelet aggregation (RPA) rate normalized to the individual's control RPA rate” value ([3]; 5 mM NAC) was 0.38, the “Reduction of the maximum growth rate of thrombi” value ([3]; 5 mM NAC) was 60% and the “Average lag time (time to 1% of maximal platelet intensity)” value ([3]; 5 mM NAC, 0 mM 49 s) was 107 s. For the same molecule, the Visible platelet aggregation ([3]; 10 mM NAC, 1000 s of the experiment) was “no visible aggregation of platelets”, the “Lag time (time to 1% of maximal platelet intensity)” value ([3]; 10 mM NAC, 0 mM 49 s) was 910 s and the “Platelet aggregation (RPA) rate normalized to the individual's control RPA rate” value ([3]; 10 mM NAC, small negative value said to be an artifact) was −0.12. The Visible platelet aggregation ([3]; 20 mM NAC) was “no visible platelet aggregation”, the Visible platelet aggregation ([3]; 40 mM NAC) was “no visible platelet aggregation” and the Visible platelet aggregation ([3]; NAC concentrations over 10 mM) was “no visible platelet aggregation”. The Clot stability ([4]; 200 mg/kg NAC single injection) was “recanalized completely; also recorded: more likely to be unstable and recanalize”, the “Flow after recanalization, of the initial flow” value ([4]; 200 mg/kg NAC single injection) was about 100% and the Clot stability ([4]; 400 mg/kg NAC 6 hrs prior to surgery, PBS immediately prior to crush injury) was “formed unstable thrombi”. For the same molecule, the Occlusion ([4]; 400 mg/kg NAC I.V. single injection, N=3, 45 minutes of the experiment) was “no occlusion was observed; also recorded: completely prevented occlusion”, the Observations following administration ([4]; NAC I.V., single injection experiments) was “lower basal blood flow and initial labored breathing” and the Clot stability [4, 11] was “majority forming unstable thrombi”. The Time to clotting [4, 11] was at most 10 min, the “Tissue at crush injury site” value [4, 11] was “more severe tissue damage and hemorrhage” and the Average bleeding time (tail bleeding in mice [5]) was 2.76 min. The “Plasma concentration at 6 hrs, of the initial concentration” value [6] was under 0.05%, the “Mice that formed no thrombi and remained patent during the entire experiment” value [7] was “Three of the 4” and the “Estimated elimination half-life in mouse plasma” value [8] was 34 min. The Oral bioavailability [9] was 4-9%.
In the case of “VWF: VWF (Humate) added at 19 IU/mL to 10 mM NAC treated blood”, the “Increase in lag time of recovery condition vs control (shift of control curve)” value (human whole blood [10]; 10 mM NAC + 19 IU vWF) is reported as 76 s and the “Occlusive thrombus formation after VWF addition” value (human whole blood [10]; 19 IU/mL VWF added to blood treated with 10 mM NAC) is reported as “recover the ability to form rapid occlusive thrombi; also recorded: forms occlusive thrombi”.
